Laboratory results as given in doi:10.1101/2024.07.29.605666v2, “Effects of two different compounds on seizure suppression using the zebrafish PTZ-seizure model” (bioRxiv, 2024).

Columns and labels:
Assay type in all cases: in vivo, zebrafish (Danio rerio)
zebrafish larvae = test: PTZ-induced seizure behaviour (latency and number of seizures) after 24 h compound pretreatment; details: tripeptide 25, 10 and 5 μg/mL, 24 h pretreatment, then 15 mM PTZ, 10 min visual observation; vs PTZ group
Description: (§1) For all compounds, zebrafish larvae at 6 days post-fertilization (dpf) were randomly placed into Petri dishes, each one containing 25 larvae. The larvae were incubated in the respective solutions and concentrations for 24h (as specified in Table 1) prior to seizure induction. The temperature and photoperiod conditions were consistent with those described for the adult zebrafish. The study groups consisted of the Control Group (CG), PTZ Group (PTZ), Treatment 1, Treatment 2, and Treatment 3. Treatments 1 to 3 employed the previously determined concentrations mentioned above.
Seizure induction followed the pretreatment of the compounds. Larvae with 7 dpf were carefully transferred to a 96-well plate filled with 100 μL of aquarium water, with one larva per well. Subsequently, 100 μL of 30 mM of the proconvulsant agent pentylenetetrazol (PTZ) (Sigma-Aldrich, St. Louis, MO, USA) was added to each well, resulting in a final concentration of 15 mM of PTZ. The larvae were exposed to PTZ for 20 minutes. The control group underwent the same procedure but in PTZ-free water.
The latency and number of seizures were monitored through visual observation, following the method described by Barbalho et al., 2016a. […] Larvae were evaluated for 10 minutes of PTZ exposure, and a complete seizure was considered when they reached stage 3.

il1b = test: RT-qPCR of il1b transcript in larval heads after PTZ-induced seizures; details: tripeptide 24 h, then 15 mM PTZ 20 min; significant effects at 10 and 5 μg/mL; n = 5 pools of five heads; vs PTZ group
Description: as §1
(§2) Seizure induction followed the pretreatment of the compounds. […]
(§3) Immediately after PTZ exposure, fish were cryo-anesthetized and their heads were cut, collected, and then incubated in TRIzol® (Invitrogen, Carlsbad, CA, USA). […] The concentration and quality were determined using the Epoch™ spectrophotometer (BioTek, Winooski, VT, USA) and gel electrophoresis.
(§4) The synthesis of cDNA was carried out using the High-Capacity cDNA Reverse Transcription kit (Applied Biosystems™, Califórnia, USA) following the manufacturer’s instructions. Quantitative PCR (qPCR) was performed using the SYBR ® Green Master Mix reagent (Bio-Rad) using the ABI 7500 system (Applied Biosystems, Foster City, CA, USA). […] Data were evaluated using 7500 software v2.03 (Applied Biosystems). […]

casp9 = test: RT-qPCR of casp9 transcript in larval heads after PTZ-induced seizures; details: tripeptide 24 h, then 15 mM PTZ 20 min; significant effects at 10 and 5 μg/mL; n = 5 pools of five heads; vs PTZ group
Description: as §1, §2, §3, §4

casp3a = test: RT-qPCR of casp3a transcript in larval heads after PTZ-induced seizures; details: tripeptide 10 μg/mL 24 h, then 15 mM PTZ 20 min; no statistical difference detected; n = 5
Description: as §1, §2, §3, §4

baxa = test: RT-qPCR of baxa transcript in larval heads after PTZ-induced seizures; details: tripeptide 10 μg/mL 24 h, then 15 mM PTZ 20 min; no statistical difference detected; n = 5
Description: as §1, §2, §3, §4

bcl2a = test: RT-qPCR of bcl2a transcript in larval heads after PTZ-induced seizures; details: tripeptide 10 μg/mL 24 h, then 15 mM PTZ 20 min; no statistical difference detected; n = 5
Description: as §1, §2, §3, §4

For Glu-Val-Trp [Tripeptide], the number of seizures (zebrafish larvae) was “No statistical significance was found”, the “seizure latency (time to stage 3 seizure-like activity)” value (zebrafish larvae) was “No statistical significance was found” and the “il1b gene expression (RQ = 2-ΔΔCT)” value (il1b) was “downregulation”. The “casp9 gene expression (RQ = 2-ΔΔCT)” value (casp9) was “downregulation”, the “casp3a gene expression (RQ = 2-ΔΔCT)” value (casp3a) was “roughly equivalent to or slightly higher than those of the PTZ group” and the “baxa gene expression (RQ = 2-ΔΔCT)” value (baxa) was “roughly equivalent to or slightly higher than those of the PTZ group”. The “bcl2a gene expression (RQ = 2-ΔΔCT)” value (bcl2a) was “roughly equivalent to or slightly higher than those of the PTZ group”.
